Results reported in PubChem BioAssay (NCI).
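Step 1: Grow cells in 96-well plates. Step 2: Expose to compound for 48 hours at 5 concentrations. Step 3: Interpolate endpoints linearly; if unreached, use highest concentration. GI50: concentration for 50% inhibition of growth. TGI marks complete inhibition of growth.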

What was measured:
Test in all cases: NCI tumour cell line growth inhibition, 48 h
OVCAR-4 ovarian = test system: OVCAR-4 ovarian
IGROV1 ovarian = test system: IGROV1 ovarian
SK-MEL-28 melanoma = test system: SK-MEL-28 melanoma
SNB-19 CNS = test system: SNB-19 CNS
SNB-75 CNS = test system: SNB-75 CNS
NCI-H23 lung = test system: NCI-H23 lung
SF-539 CNS = test system: SF-539 CNS
RPMI-8226 leukemia = test system: RPMI-8226 leukemia
SK-OV-3 ovarian = test system: SK-OV-3 ovarian
CCRF-CEM leukemia = test system: CCRF-CEM leukemia

| Structure (SMILES) | TGI (OVCAR-4 ovarian) | TGI (IGROV1 ovarian) | TGI (SK-MEL-28 melanoma) | TGI (SNB-19 CNS) | TGI (SNB-75 CNS) | TGI (NCI-H23 lung) | TGI (SF-539 CNS) | TGI (RPMI-8226 leukemia) | TGI (SK-OV-3 ovarian) | TGI (CCRF-CEM leukemia) | GI50 (RPMI-8226 leukemia) | GI50 (CCRF-CEM leukemia) | GI50 (OVCAR-4 ovarian) | GI50 (IGROV1 ovarian) | GI50 (SNB-19 CNS) | GI50 (SNB-75 CNS) |
| --- | --- | --- | --- | --- | --- | --- | --- | --- | --- | --- | --- | --- | --- | --- | --- | --- |
| O=C(O)c1ccc(Nc2nc3cc(C(F)(F)F)ccc3nc2C(=O)O)cc1 | > 100 µM | > 100 µM | > 100 µM | > 100 µM | > 100 µM | > 100 µM |  |  |  |  |  |  |  |  |  |  |
| CCCCSc1n/c(=C\c2ccc(N(C)C)cc2)c2nnnn12 | > 100 µM | > 100 µM | > 100 µM | > 100 µM | > 100 µM | > 100 µM | > 100 µM | > 100 µM | > 100 µM |  |  |  |  |  |  |  |
| N#CC1=CNc2sccc2S1(=O)=O | > 100 µM | > 100 µM | > 100 µM | > 100 µM | > 100 µM | > 100 µM | > 100 µM | > 100 µM | > 100 µM |  |  |  |  |  |  |  |
| OCCN=C1Nc2ccc(Cl)cc2C(=S)N2CSC[C@@H]12 | > 100 µM |  | > 100 µM | > 100 µM |  | > 100 µM | > 100 µM | > 100 µM | > 100 µM |  |  |  |  |  |  |  |
| COc1ccc(CNc2nc(NCc3ccc(OC)cc3)nc(N3CCOCC3)n2)cc1 | > 100 µM | > 100 µM | > 100 µM | > 100 µM | > 100 µM | 28.7 µM | 19.2 µM | 4.03 µM | > 100 µM |  |  |  |  |  |  |  |
| COc1cc(/C=C2/SC(c3ccccc3)N(c3cccc([N+](=O)[O-])c3)C2=O)cc(OC)c1OC (stereo not drawn) | > 100 µM |  | > 100 µM | > 100 µM |  | > 100 µM | > 100 µM | > 100 µM | > 100 µM | > 100 µM |  |  |  |  |  |  |
| COc1ccc(NC2Oc3cc4c(cc3C(c3cc(OC)c(O)c(OC)c3)C2C)OCO4)cc1 (stereo not drawn) | > 100 µM | > 100 µM | 37.3 µM | > 100 µM | 15 µM | > 100 µM | 25.6 µM | 12.9 µM |  |  |  |  |  |  |  |  |
| CCOC(=O)c1cn(-c2ccc(Cl)cc2)c(=O)n2c1nc1ccccc12 | > 100 µM | > 100 µM | > 100 µM | > 100 µM | > 100 µM | > 100 µM | > 100 µM | > 100 µM |  | > 100 µM |  |  |  |  |  |  |
| CSc1ncc2c(n1)-c1ccccc1OC2N1CCCC1 (stereo not drawn) | > 100 µM | > 100 µM |  | > 100 µM | > 100 µM | > 100 µM | > 100 µM | > 100 µM | > 100 µM | > 100 µM |  |  |  |  |  |  |
| CC(C)n1c(=O)n(-c2ccccc2)n(C(C)(C)C)c1=O | > 100 µM | > 100 µM | > 100 µM | > 100 µM | > 100 µM | > 100 µM | > 100 µM |  | > 100 µM | > 100 µM |  |  |  |  |  |  |
| CSC(=NC1=NC(C(F)(F)F)(C(F)(F)F)N=C(c2ccccc2)O1)SC | 59.1 µM |  | > 100 µM | > 100 µM | 18.9 µM | 65.5 µM | > 100 µM |  | > 100 µM | > 100 µM |  |  |  |  |  |  |
| Cc1ccc(S(=O)(=O)N2CCN(CCN(C)CCN3CCN(S(=O)(=O)c4ccc(C)cc4)CC3)CC2)cc1 | 43.7 µM | 33.6 µM | 31.4 µM | 69.4 µM |  | 44.8 µM | 30.3 µM | 37 µM | 33.3 µM | 44.2 µM |  |  |  |  |  |  |
| COc1ccc2c(c1)CCc1c-2n(CCN(C)C)c2ccc(OC)cc12 | 68.7 µM | 79.5 µM | 33.6 µM | 36.5 µM | 76.5 µM | 50.2 µM |  | 65.9 µM | 87.1 µM | 9.5 µM |  |  |  |  |  |  |
| Cc1ccc(O)c(C2=NNC(c3cccc(Br)c3)C2)c1 (stereo not drawn) |  | > 100 µM |  | 76.3 µM |  | > 100 µM | > 100 µM | > 100 µM | > 100 µM | > 100 µM |  |  |  |  |  |  |
| COS(=O)c1cc(Cl)cc(Cl)c1O (stereo not drawn) | > 100 µM |  | > 100 µM | > 100 µM | > 100 µM | > 100 µM | > 100 µM |  | > 100 µM | > 100 µM |  |  |  |  |  |  |
| O=C(O)c1ccccc1/C=N\NC1=NCCCCN1 | > 100 µM | > 100 µM |  | > 100 µM | > 100 µM | > 100 µM | > 100 µM | > 100 µM | > 100 µM | > 100 µM |  |  |  |  |  |  |
| COc1c/c(=C2/C=c3ccccc3=N2)[nH]/c1=C/c1[nH]c(C)cc1C | > 100 µM | > 100 µM |  | > 100 µM | > 100 µM |  |  | 1.95 µM |  | > 100 µM | 0.0533 µM | 0.0313 µM | 0.106 µM | 0.0724 µM | 0.598 µM | 0.108 µM |
| O=C(/C=C/c1ccc([N+](=O)[O-])cc1)c1nc2ccccc2[nH]1 | > 100 µM | 17.9 µM | > 100 µM | > 100 µM | > 100 µM |  | > 73.6 µM | 33.3 µM | > 100 µM | > 100 µM |  |  |  |  |  |  |
| Cc1ccc2c(c1)OC1Nc3ccccc3C1=C2O (stereo not drawn) | > 100 µM | > 100 µM | > 100 µM | > 100 µM | > 100 µM | 74.6 µM | 44.4 µM | > 100 µM | 64.3 µM |  |  |  |  |  |  |  |
| Cc1[nH]c(-c2ccccc2)c(-c2ccc(Cl)cc2)c1C(=O)ONC(=O)c1ccccc1 |  | 2.52 µM | 24.9 µM | 19.3 µM | 15.1 µM | 15.3 µM | 6.02 µM | > 48.4 µM | 32.4 µM | > 21.8 µM |  |  |  |  |  |  |
| CCOC(=O)c1sc2c(c1OC(=O)c1ccccc1)c(=O)n(-c1ccccc1)c(=S)n2-c1ccccc1 | 32 µM | 43.3 µM | > 100 µM | > 100 µM |  | 48.9 µM | 47.7 µM | > 100 µM | > 100 µM | > 100 µM |  |  |  |  |  |  |
| O=C(NCCO)c1ccc(Cl)cc1 | > 100 µM | > 100 µM | > 100 µM | > 100 µM | > 100 µM | > 100 µM |  |  |  | 90.2 µM |  |  |  |  |  |  |
